The text below walks through data of patent US9155317B2, “Antifungal compositions” (DSM IP ASSETS B.V., priority 2011, dated 2015).

The structures appear in SMILES notation.

Test [1] has as its system Fusarium proliferatum. Description: Treatment of wounded, inoculated bananas (mould growth). The format is in vivo. Conditions: 20° C. The protocol: Four organic, unripe (green) bananas were used per treatment. The peel of each banana was wounded thrice using a cork borer according to the method described by de Lapeyre de Bellaire and Dubois (1987). Subsequently, each wound was inoculated with 15 μl of a Fusarium proliferatum suspension containing 1×10^5 of spores/ml. […] In addition, the antifungal compositions comprised 1.00% (w/w) methylhydroxyethylcellulose (MHEC), 0.40% (w/w) xanthan gum, 0.20% (w/w) anti-foaming agent, 0.30% (w/w) citric acid, 0.39% (w/w) lactic acid and 0.11% (w/w) potassium sorbate. […] The treated, unripe bananas were incubated in a closed box in the dark at 20° C. and a relative air humidity of 95%, which was obtained in the presence of a saturated Na2HPO4 aqueous solution. During the first 20 days of incubation, a ripe (yellow) banana was included in the closed box to elevate the ethylene gas level and thus induce ripening of the treated, unripe bananas.
(§1) The expected antifungal activity (E in %) of the combined antifungal composition comprising both active ingredients was calculated according to the Colby equation (Colby, 1967): E=X+Y−[(X·Y)/100] wherein X and Y are the observed antifungal activities (in %) of the individual active ingredients X and Y, respectively. If the observed antifungal activity (0 in %) of the combination exceeds the expected antifungal activity (E in %) of the combination and the synergy factor O/E is thus >1.0, the combined application of the active ingredients leads to a synergistic antifungal effect.
The degree of mould growth on the banana wounds was assessed according to the two methods described in Example 3.

Test [2] has as its system Penicillium italicum. Description: Treatment of wounded, inoculated mandarins (mould growth). Conditions: 20° C. The format is in vivo. As for the experimental part:
Ten fresh, organic mandarins were used per treatment. The peel of each mandarin was wounded once using a cork borer according to the method described by de Lapeyre de Bellaire and Dubois (1987). Subsequently, each wound was inoculated with 10 μl of a Penicillium italicum suspension containing 1×10^4 of spores/ml.
as §1, with “The treated mandarins were incubated in a closed box in the dark at 20° C. and assessed on mould growth after 16, 19, 22 and 26 days of incubation. […] The” for “The”, “(O” for “(0”

For test [3], the system named is Botrytis cinerea. Put plainly: In vitro antifungal activity, 96-well microtiter plates. Conditions: 5 days at 25° C., alone or combined with natamycin. The class given is cell-based. The protocol: The following compositions were tested:
(§2) Subsequently, 100 μl of a Botrytis cinerea suspension prepared in PCB medium was used to inoculated each well with 2.5×10^3 spores/ml.
(§3) After incubation of the microtiter plates for 5 days at 25° C., the in vitro antifungal activity (%) of the individual active ingredients was assessed by calculating the reduction in mould growth observed in the presence of the active ingredient in comparison to the mould growth observed in the absence of the active ingredient. The expected antifungal activity (E in %) of the active ingredient combination was calculated according to the Colby equation (Colby, 1967): E=X+Y−[(X·Y)/100] wherein X and Y are the observed antifungal activities (in %) of the individual active ingredients X and Y, respectively. If the observed antifungal activity (O in %) of the combination exceeds the expected antifungal activity (E in %) of the combination and the resulting synergy factor O/E is thus >1.0, the combined application of the active ingredients leads to a synergistic antifungal effect.

Test [4] has as its system Fusarium proliferatum. Described as above. The format is cell-based. Conditions: 5 days at 25° C. The protocol: as §2, §3
The experiment was conducted as described in Example 11, except for the fact that the following compositions were tested:
Furthermore, Fusarium proliferatum was used for inoculation.

The test system of test [5] is Botrytis cinerea. Put plainly: Treatment of wounded, inoculated strawberries (mould growth). The format is in vivo. Conditions: 20° C., 250 ppm natamycin, 500 ppm pyrimethanil or both. The protocol:
Twelve fresh, organic strawberries were used per treatment. Each strawberry was wounded with a 0.5 mm long cut and each wound was inoculated with 10 μl of a Botrytis cinerea suspension containing 1×10^5 of spores/ml. […] The antifungal composition also comprised 1.00% (w/w) methylhydroxyethylcellulose (MHEC), 0.40% (w/w) xanthan gum, 0.20% (w/w) anti-foaming agent, 0.30% (w/w) citric acid, 0.39% (w/w) lactic acid and 0.11% (w/w) potassium sorbate. A composition without natamycin or pyrimethanil was used as control.
as §1, with “The treated strawberries were incubated for three days in a closed box in the dark at 20° C. and assessed daily on mould growth. The antifungal activity (in %) of the individual active ingredients was determined by calculating the reduction in mould growth observed on the strawberries treated with the antifungal composition in comparison to the mould growth on the strawberries treated with the control composition. The” for “The”, “(O” for “(0”

The mark [6] stands for this setting: 250 ppm natamycin, 500 ppm cyprodinil or both, 21 days.
Where [7] appears, read: 500 ppm natamycin, 1000 ppm cyprodinil or both, 27 days.
Where [8] appears, read: natamycin 1.25 ppm, cyprodinil 10 ppm, pyrimethanil 17.5 ppm.
Setting [9] is: natamycin […], cyprodinil 20 ppm, pyrimethanil 30 ppm.
Setting [10] is: 250 ppm natamycin, 500 ppm pyrimethanil or both, 23 days.
The mark [11] stands for this setting: 250 ppm natamycin, 500 ppm pyrimethanil or both, 29 days.
Where [12] appears, read: 500 ppm natamycin, 1000 ppm pyrimethanil or both, 22 days.
[13] abbreviates: 500 ppm natamycin, 1000 ppm pyrimethanil or both, 26 days.

For `Cc1cc(C2CC2)nc(Nc2ccccc2)n1` [Cyprodinil, cyprodinil], the “Observed antifungal activity O (%)” value in test [1] (50 ppm natamycin, 250 ppm cyprodinil or both, 23 days) came to 0%; in test [1] (50 ppm natamycin, 250 ppm cyprodinil or both, 29 days) it was 0%; in test [1] (50 ppm natamycin, 250 ppm cyprodinil or both, 32 days) it was 0%; in test [1] (50 ppm natamycin, 250 ppm cyprodinil or both, 36 days), 0%; in test [1] (setting [6]) it was 35%; in test [1] (250 ppm natamycin, 500 ppm cyprodinil or both, 32 days), 3%. Also, the “Observed antifungal activity O (%)” value in test [1] (250 ppm natamycin, 500 ppm cyprodinil or both, 34 days) turned out to be 0%; in test [1] (setting [7]) it was 18%; in test [1] (500 ppm natamycin, 1000 ppm cyprodinil or both, 39 days) it was 0%; in test [2] (250 ppm natamycin, 500 ppm cyprodinil or both, 16 days) it was 60%; in test [2] (250 ppm natamycin, 500 ppm cyprodinil or both, 19 days) it was 38%; in test [2] (250 ppm natamycin, 500 ppm cyprodinil or both, 22 days), 20%. In addition, the “Observed antifungal activity O (%)” value in test [2] (250 ppm natamycin, 500 ppm cyprodinil or both, 26 days) is 13%; in test [3] (setting [8]), 0%; in test [3] (setting [9]), 0%; in test [4] (natamycin 1.25 ppm, cyprodinil 125 ppm or both), 0%. In addition, the “Number of moulded wounds/total number of 12 wounds” value in test [1] (250 ppm natamycin, 500 ppm cyprodinil or both, 18 days) is 12/12; in test [1] (250 ppm natamycin, 500 ppm cyprodinil or both, 18 days, listed as cyprodinil) it was 12; in test [1] (setting [6]), 12/12; in test [1] (250 ppm natamycin, 500 ppm cyprodinil or both, 21 days, listed as cyprodinil) it was 12; in test [1] (500 ppm natamycin, 1000 ppm cyprodinil or both, 23 days), 12/12; in test [1] (500 ppm natamycin, 1000 ppm cyprodinil or both, 23 days, listed as cyprodinil), 12. The “Number of moulded wounds/total number of 12 wounds” value is reported as 12/12 in test [1] (setting [7]) and 12 in test [1] (500 ppm natamycin, 1000 ppm cyprodinil or both, 27 days, listed as cyprodinil).
In the case of `C[C@@H]1C/C=C/C=C/C=C/C=C/[C@H](O[C@@H]2O[C@H](C)[C@@H](O)[C@H](N)[C@@H]2O)C[C@@H]2O[C@](O)(C[C@@H](O)C[C@H]3O[C@@H]3/C=C/C(=O)O1)C[C@H](O)[C@H]2C(=O)O` [Natamycin, natamycin], the “Observed antifungal activity O (%)” value in test [1] (setting [10]) was 19%; in test [1] (setting [11]) it was 9%; in test [2] (setting [12]), 37%; in test [2] (setting [13]), 30%; in test [5] (1 day), 25%; in test [5] (2 days) it was 31%. Besides, the “Observed antifungal activity O (%)” value in test [5] (3 days) is on record as 24%.
On to `Cc1cc(C)nc(Nc2ccccc2)n1` [Pyrimethanil, pyrimethanil], for which the “Observed antifungal activity O (%)” value in test [1] (setting [10]) is recorded as 0%; in test [1] (setting [11]), 0%; in test [1] (250 ppm natamycin, 500 ppm pyrimethanil or both, 32 days) it was 0%; in test [1] (250 ppm natamycin, 500 ppm pyrimethanil or both, 34 days), 0%; in test [2] (250 ppm natamycin, 500 ppm pyrimethanil or both, 19 days), 84%; in test [2] (250 ppm natamycin, 500 ppm pyrimethanil or both, 22 days) it was 74%. The “Observed antifungal activity O (%)” value in test [2] (250 ppm natamycin, 500 ppm pyrimethanil or both, 26 days) worked out at 65%; in test [2] (setting [12]) it was 82%; in test [2] (setting [13]) it was 79%; in test [3] (setting [8]), 50%; in test [3] (setting [9]), 50%; in test [5] (1 day), 0%. For the same compound, the “Observed antifungal activity O (%)” value in test [5] (2 days) is 0%; in test [5] (3 days) it was 0%; in test [4] (natamycin 2.5 ppm, pyrimethanil 275 ppm or both), 0%.
